Experimental data taken from patent US11304957B2, “Substituted quinazolines for inhibiting kinase activity” (NeuPharma, Inc., priority 2013, dated 2022).
Each block holds one molecule with its values, some of them ahead of it.

Assays:
Assay type in all cases: biochemical
BTK = BTK (Homo sapiens (Human), UniProt Q06187); assay: Z'-LYTE kinase inhibition assay, BTK; settings: read-out: % inhibition BTK; heading: % inhibition BTK; compound at 0.041 μM
Experimental: (§1) Inhibitory activities of compounds against BTK, EGFR and EGFR mutants (EGFR L858R, EGFR T790M, EGFR L858R/T790M), FGFR1, FGFR2, JAK2, JAK3 and KDR were measured by Invitrogen using Z′-LYTE® Method as briefly described in the following.
(§2) Test Compounds are screened in 1% DMSO (final) in the well. For 10 point titrations, 3-fold serial dilutions are conducted from the starting concentration. All ATP Solutions are diluted to a 4× working concentration in Kinase Buffer (50 mM HEPES pH 7.5, 0.01% BRIJ-35, 10 mM MgCl2, 1 mM EGTA). Peptide/Kinase Mixtures are diluted to a 2× working concentration in the appropriate Kinase Buffers as described below.
(v) Peptide/Kinase Mixtures for Measurement of BTK:
The 2×BTK/Tyr 01 mixture is prepared in 50 mM HEPES pH 7.5, 0.01% BRIJ-35, 10 mM MgCl2, 1 mM EGTA.
The mixture is then incubated for another 60-minute at room temperature for development reaction. Finally fluorescence is read by plate reader.
To determine IC50 of a compound against EGFR, EGFR mutant and other kinases, a series of concentrations of the compound were tested for the inhibition. […] The scale utilized in Table 4 is as follows: +++ less than 100 nM, ++ 100-500 nM and + greater than 500 nM.

JAK2 = JAK2 (Homo sapiens (Human), UniProt O60674); assay: Z'-LYTE kinase inhibition assay, JAK2; settings: read-out: % inhibition JAK2; heading: % inhibition JAK2; compound at 0.041 μM
Chain of JAK2 (O60674 whole entry): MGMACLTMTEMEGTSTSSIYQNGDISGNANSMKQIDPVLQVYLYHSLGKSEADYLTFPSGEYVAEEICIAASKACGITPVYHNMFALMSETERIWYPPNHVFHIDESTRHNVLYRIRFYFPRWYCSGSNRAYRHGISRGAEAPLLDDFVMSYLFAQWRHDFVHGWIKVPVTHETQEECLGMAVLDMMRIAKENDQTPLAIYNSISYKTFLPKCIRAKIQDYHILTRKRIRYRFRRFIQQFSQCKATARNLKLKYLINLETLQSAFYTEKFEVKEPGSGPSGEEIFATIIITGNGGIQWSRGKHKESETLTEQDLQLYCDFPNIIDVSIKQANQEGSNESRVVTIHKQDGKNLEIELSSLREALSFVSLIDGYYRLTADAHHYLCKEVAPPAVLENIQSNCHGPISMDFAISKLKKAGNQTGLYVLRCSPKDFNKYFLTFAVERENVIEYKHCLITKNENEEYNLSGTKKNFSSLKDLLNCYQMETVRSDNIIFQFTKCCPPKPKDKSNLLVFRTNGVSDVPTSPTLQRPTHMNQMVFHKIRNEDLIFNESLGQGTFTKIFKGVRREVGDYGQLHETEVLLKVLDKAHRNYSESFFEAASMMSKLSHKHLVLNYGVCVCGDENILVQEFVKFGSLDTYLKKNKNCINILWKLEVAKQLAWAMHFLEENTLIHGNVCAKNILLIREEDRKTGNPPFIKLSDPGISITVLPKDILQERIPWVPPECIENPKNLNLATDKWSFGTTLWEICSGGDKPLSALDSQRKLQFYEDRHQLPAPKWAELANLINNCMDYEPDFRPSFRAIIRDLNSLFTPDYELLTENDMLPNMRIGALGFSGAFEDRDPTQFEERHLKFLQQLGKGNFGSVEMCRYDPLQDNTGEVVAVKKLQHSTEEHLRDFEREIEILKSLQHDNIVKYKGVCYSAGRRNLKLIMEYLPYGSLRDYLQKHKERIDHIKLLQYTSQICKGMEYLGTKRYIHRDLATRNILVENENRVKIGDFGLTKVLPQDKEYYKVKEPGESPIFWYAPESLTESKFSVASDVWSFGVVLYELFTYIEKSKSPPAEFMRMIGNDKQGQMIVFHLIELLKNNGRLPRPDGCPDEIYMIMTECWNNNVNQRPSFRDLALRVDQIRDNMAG
Experimental: as §1, §2
(v) Peptide/Kinase Mixtures for Measurement of JAK2:
The 2×JAK2/Tyr 06 mixture is prepared in 50 mM HEPES pH 7.5, 0.01% BRIJ-35, 10 mM MgCl2, 1 mM EGTA. The final 10 μL Kinase Reaction consists of 0.06-0.81 ng JAK2 and 2 μM Tyr 06 in 50 mM HEPES pH 7.5, 0.01% BRIJ-35, 10 mM MgCl2, 1 mM EGTA. After the 1 hour Kinase Reaction incubation, 5 μL of a 1:64 dilution of Development Reagent A is added.
Reaction starts by 30-second shaking of mixture consisting of 2.5 μL 4× test compound, 5 μL 2× kinase reaction mixture and 2.5 μL 4×ATP Solution on Bar-coded Corning, low volume NBS, black 384-well plate (Corning Cat. #3676). Then the mixture is incubated for 60-minute at room temperature for the kinase reaction, followed by addition of 5 μL of a 1:1024 dilution of development reagent A and 30-second plate shake. The mixture is then incubated for another 60-minute at room temperature for development reaction. Finally fluorescence is read by plate reader.

EGFR (ErbB1) T790M L858R = EGFR (ErbB1) T790M L858R (Homo sapiens (Human), UniProt P00533, L858R/T790M); assay: Z'-LYTE kinase inhibition assay, EGFR L858R/T790M; settings: for inhibition at 0.0137 µM: read-out: % inhibition EGFR L858R/T790M (Compound at 0.0137 μM)
Chain of EGFR (ErbB1) T790M L858R (P00533 25-1210 T790M/L858R): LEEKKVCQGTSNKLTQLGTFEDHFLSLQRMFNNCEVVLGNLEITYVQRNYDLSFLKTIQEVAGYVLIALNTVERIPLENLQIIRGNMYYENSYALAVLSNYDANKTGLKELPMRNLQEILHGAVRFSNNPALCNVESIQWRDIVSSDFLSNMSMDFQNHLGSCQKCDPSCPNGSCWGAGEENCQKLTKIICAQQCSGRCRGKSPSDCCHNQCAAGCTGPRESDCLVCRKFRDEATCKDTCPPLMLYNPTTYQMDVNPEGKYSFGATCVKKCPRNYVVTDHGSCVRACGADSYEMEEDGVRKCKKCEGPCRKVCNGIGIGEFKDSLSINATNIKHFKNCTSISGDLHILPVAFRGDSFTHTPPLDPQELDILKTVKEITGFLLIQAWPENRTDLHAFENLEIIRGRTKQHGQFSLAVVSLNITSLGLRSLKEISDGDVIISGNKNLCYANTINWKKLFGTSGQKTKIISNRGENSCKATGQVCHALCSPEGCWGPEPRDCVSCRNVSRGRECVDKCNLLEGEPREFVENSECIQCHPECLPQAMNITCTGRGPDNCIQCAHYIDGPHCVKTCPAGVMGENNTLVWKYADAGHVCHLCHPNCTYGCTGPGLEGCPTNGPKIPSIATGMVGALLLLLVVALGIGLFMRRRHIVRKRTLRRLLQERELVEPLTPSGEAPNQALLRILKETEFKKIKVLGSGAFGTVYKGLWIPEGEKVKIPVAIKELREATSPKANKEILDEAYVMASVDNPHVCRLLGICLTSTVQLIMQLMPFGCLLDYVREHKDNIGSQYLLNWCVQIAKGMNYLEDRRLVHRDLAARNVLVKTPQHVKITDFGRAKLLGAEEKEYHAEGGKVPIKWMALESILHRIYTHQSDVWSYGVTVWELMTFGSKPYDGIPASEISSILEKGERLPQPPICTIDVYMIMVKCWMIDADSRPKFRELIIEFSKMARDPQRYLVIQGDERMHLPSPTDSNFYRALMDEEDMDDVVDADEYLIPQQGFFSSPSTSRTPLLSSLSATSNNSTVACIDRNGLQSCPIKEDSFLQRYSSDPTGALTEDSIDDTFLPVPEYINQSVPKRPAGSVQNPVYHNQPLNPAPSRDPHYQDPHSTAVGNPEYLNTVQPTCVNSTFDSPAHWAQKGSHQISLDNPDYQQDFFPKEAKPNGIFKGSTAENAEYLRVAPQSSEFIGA
Experimental: Inhibitory activities of compounds against BTK, EGFR and EGFR mutants (EGFR L858R, EGFR T790M, EGFR L858R/T790M), FGFR1, FGFR2, JAK2, JAK3 and KDR were measured by Invitrogen using Z'-LYTE® Method as briefly described in the following. Test Compounds are screened in 1% DMSO (final) in the well. For 10 point titrations, 3-fold serial dilutions are conducted from the starting concentration. All ATP Solutions are diluted to a 4× working concentration in Kinase Buffer (50 mM HEPES pH 7.5, 0.01% BRIJ-35, 10 mM MgCl2, 1 mM EGTA). Peptide/Kinase Mixtures are diluted to a 2× working concentration in the appropriate Kinase Buffers as described below. (iv) Peptide/Kinase Mixtures for Measurement of EGFR (ErbB1) T790M L858R: The 2×EGFR (ErbB1) […] mixture is prepared in 50 mM HEPES pH 6.5, 0.01% BRIJ-35, 10 mM MgCl2, 1 mM EGTA, 0.02% NaN3. […] After the 1 hour Kinase Reaction incubation, 5 μL of a 1:64 dilution of Development Reagent B is added. Reaction starts by 30-second shaking of mixture consisting of 2.5 μL 4× test compound, 5 μL 2× kinase reaction mixture and 2.5 μL 4×ATP Solution on Bar-coded Corning, low volume NBS, black 384-well plate (Corning Cat. #3676). Then the mixture is incubated for 60-minute at room temperature for the kinase reaction, followed by addition of 5 μL of a 1:1024 dilution of development reagent A and 30-second plate shake. The mixture is then incubated for another 60-minute at room temperature for development reaction. Finally fluorescence is read by plate reader. To determine IC50 of a compound against EGFR, EGFR mutant and other kinases, a series of concentrations of the compound were tested for the inhibition.

Chain of BTK (Q06187 whole entry): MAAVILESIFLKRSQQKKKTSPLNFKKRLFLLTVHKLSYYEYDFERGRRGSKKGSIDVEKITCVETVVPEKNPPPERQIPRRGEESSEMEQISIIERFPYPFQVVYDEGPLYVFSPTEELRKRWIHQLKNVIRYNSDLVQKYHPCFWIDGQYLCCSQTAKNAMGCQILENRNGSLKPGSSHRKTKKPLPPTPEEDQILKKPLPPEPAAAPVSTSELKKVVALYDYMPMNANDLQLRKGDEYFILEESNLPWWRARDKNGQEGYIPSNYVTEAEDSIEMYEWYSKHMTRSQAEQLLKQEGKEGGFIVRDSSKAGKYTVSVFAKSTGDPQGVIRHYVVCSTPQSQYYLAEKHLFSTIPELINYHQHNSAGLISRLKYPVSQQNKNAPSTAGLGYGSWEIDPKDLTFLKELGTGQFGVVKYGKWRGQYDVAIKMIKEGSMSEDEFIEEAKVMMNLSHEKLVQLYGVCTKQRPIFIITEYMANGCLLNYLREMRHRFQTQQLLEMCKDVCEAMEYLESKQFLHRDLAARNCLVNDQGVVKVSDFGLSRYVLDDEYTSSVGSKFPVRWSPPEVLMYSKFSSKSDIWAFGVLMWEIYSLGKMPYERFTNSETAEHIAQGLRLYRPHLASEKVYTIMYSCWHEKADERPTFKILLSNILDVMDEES

inhibition at 0.041 µM (BTK): > 50%
Compound: C=CC(=O)Nc1cccc(-c2cccc3cnc(Nc4ccc(OCCN5CCC5)cc4)nc23)c1 [Example C109, N-(3-(2-((4-(2-(azetidin-1-yl)ethoxy)phenyl)amino)quinazolin-8-yl)phenyl)acrylamide]

inhibition at 0.041 µM (BTK): > 50%
Compound: C=CC(=O)Nc1cccc(-c2cccc3cnc(Nc4ccc(O[C@H]5CCOC5)cc4)nc23)c1 [Example C113, (S)-N-(3-(2-((4-((tetrahydrofuran-3-yl)oxy)phenyl)amino)quinazolin-8-yl)phenyl)acrylamide]

inhibition at 0.041 µM (BTK): > 50%
Compound: C=CC(=O)Nc1cccc(-c2cccc3cnc(Nc4ccc(N[C@@H]5CCOC5)cc4)nc23)c1 [Example C115, (R)-N-(3-(2-((4-((tetrahydrofuran-3-yl)amino)phenyl)amino)quinazolin-8-yl)phenyl)acrylamide]

inhibition at 0.041 µM (BTK): > 50%
Compound: C=CC(=O)Nc1cccc(-c2cccc3cnc(Nc4ccc(NC5CCN(C)CC5)cc4)nc23)c1 [Example C118, N-(3-(2-((4-((1-methylpiperidin-4-yl)amino)phenyl)amino)quinazolin-8-yl)phenyl)acrylamide]

inhibition at 0.041 µM (BTK): > 50%
Compound: C=CC(=O)Nc1cccc(-c2cccc3cnc(Nc4ccc(O[C@@H]5CCOC5)cc4)nc23)c1 [Example C119, (R)-N-(3-(2-((4-((tetrahydrofuran-3-yl)oxy)phenyl)amino)quinazolin-8-yl)phenyl)acrylamide]

inhibition at 0.041 µM (BTK): > 50%
Compound: C=CC(=O)Nc1cccc(-c2cccc3cnc(Nc4ccc(NC5CCN(C(C)=O)CC5)cc4)nc23)c1 [Example C120, N-(3-(2-((4-((1-acetylpiperidin-4-yl)amino)phenyl)amino)quinazolin-8-yl)phenyl)acrylamide]

inhibition at 0.041 µM (BTK): > 50%
Compound: C=CC(=O)Nc1cccc(-c2cccc3cnc(Nc4ccc(O[C@H]5CCN(C)C5)cc4)nc23)c1 [Example C121, (S)-N-(3-(2-((4-((1-methylpyrrolidin-3-yl)oxy)phenyl)amino)quinazolin-8-yl)phenyl)acrylamide]

inhibition at 0.041 µM (BTK): > 50%
Compound: C=CC(=O)Nc1cccc(-c2cccc3cnc(Nc4ccc(O[C@@H]5CCN(C)C5)cc4)nc23)c1 [Example C123, (R)-N-(3-(2-((4-((1-methylpyrrolidin-3-yl)oxy)phenyl)amino)quinazolin-8-yl)phenyl)acrylamide]

inhibition at 0.041 µM (BTK): > 50%
Compound: C=CC(=O)Nc1cccc(-c2cccc3cnc(Nc4ccc(NC5CN(C(C)=O)C5)cc4)nc23)c1 [Example C124, N-(3-(2-((4-((1-acetylazetidin-3-yl)amino)phenyl)amino)quinazolin-8-yl)phenyl)acrylamide]

inhibition at 0.041 µM (BTK): > 50%
Compound: C=CC(=O)Nc1cccc(-c2cccc3cnc(Nc4ccc(OC5CCN(C(C)=O)CC5)cc4)nc23)c1 [Example C125, N-(3-(2-((4-((1-acetylpiperidin-4-yl)oxy)phenyl)amino)quinazolin-8-yl)phenyl)acrylamide]

inhibition at 0.041 µM (BTK): > 50%
Compound: C=CC(=O)Nc1cccc(-c2cccc3cnc(Nc4ccc(OC5CCN(C)CC5)cc4)nc23)c1 [Example C126, N-(3-(2-((4-((1-methylpiperidin-4-yl)oxy)phenyl)amino)quinazolin-8-yl)phenyl)acrylamide]

Continued, molecule first:

Compound: c1ccc(-c2cccc3cnc(Nc4ccc(N5CCOCC5)cc4)nc23)cc1 [Example C004, N-(4-morpholinophenyl)-8-phenylquinazolin-2-amine]
inhibition at 0.041 µM (BTK): < 50%
inhibition at 0.041 µM (JAK2): > 50%

Compound: C=CC(=O)Nc1cccc(-c2nccc3c(N)nc(Nc4ccc(N5CCOCC5)cc4)nc23)c1 [Example C005, N-(3-(4-amino-2-((4-morpholinophenyl)amino)pyrido[3,4-d]pyrimidin-8-yl)phenyl)acrylamide]
inhibition at 0.041 µM (BTK): > 50%
inhibition at 0.041 µM (JAK2): < 50%

Compound: Fc1cccc(-c2cccc3cnc(Nc4ccc(N5CCOCC5)cc4)nc23)c1 [Example C009, 8-(3-fluorophenyl)-N-(4-morpholinophenyl)quinazolin-2-amine]
inhibition at 0.041 µM (BTK): < 50%

Compound: C=CC(=O)Nc1cccc(-c2nccc3cnc(Nc4ccc(N5CCOCC5)cc4)nc23)c1 [Example C012, N-(3-(2-((4-morpholinophenyl)amino)pyrido[3,4-d]pyrimidin-8-yl)phenyl)acrylamide]
inhibition at 0.041 µM (BTK): > 50%
inhibition at 0.041 µM (JAK2): < 50%

Compound: Clc1ccccc1-c1cccc2cnc(Nc3ccc(N4CCNCC4)cc3)nc12 [Example C026, 8-(2-chlorophenyl)-N-(4-(piperazin-1-yl)phenyl)quinazolin-2-amine]
inhibition at 0.041 µM (BTK): < 50%

Compound: C=CC(=O)Nc1cccc(-c2c(C)ccc3cnc(Nc4ccc(N5CCN(C)CC5)cc4)nc23)c1 [Example C034, N-(3-(7-methyl-2-((4-(4-methylpiperazin-1-yl)phenyl)amino)quinazolin-8-yl)phenyl)acrylamide]
inhibition at 1 µM (EGFR (ErbB1) T790M L858R; read-out: % inhibition EGFR L858R/T790M (Compound at 1 μM)): > 50%

Compound: C=CC(=O)Nc1cccc(-c2cccc3cnc(Nc4ccc(N5CCN(C)CC5)nc4)nc23)c1 [Example C041, N-(3-(2-((6-(4-methylpiperazin-1-yl)pyridin-3-yl)amino)quinazolin-8-yl)phenyl)acrylamide]
inhibition at 0.0137 µM (EGFR (ErbB1) T790M L858R): > 50%

Compound: C=CC(=O)Nc1cccc(-c2cccc3cnc(Nc4ccc(OC5CCN(C)CC5F)cc4)nc23)c1 (stereo not drawn) [Example C079, N-(3-(2-((4-((3-fluoro-1-methylpiperidin-4-yl)oxy)phenyl)amino)quinazolin-8-yl)phenyl)acrylamide]
inhibition at 0.0137 µM (EGFR (ErbB1) T790M L858R): > 50%

Compound: C=CC(=O)Nc1cccc(-c2cccc3cnc(Nc4ccc(N5CCN(C)CC5)c(C(N)=O)c4)nc23)c1 [Example C085, 5-((8-(3-acrylamidophenyl)quinazolin-2-yl)amino)-2-(4-methylpiperazin-1-yl)benzamide]
inhibition at 0.0137 µM (EGFR (ErbB1) T790M L858R): > 50%

Compound: C=CC(=O)Nc1cccc(-c2cccc3cnc(Nc4ccc(NC5CCN(C)CC5F)cc4)nc23)c1 (stereo not drawn) [Example C105, N-(3-(2-((4-((3-fluoro-1-methylpiperidin-4-yl)amino)phenyl)amino)quinazolin-8-yl)phenyl)acrylamide]
inhibition at 0.0137 µM (EGFR (ErbB1) T790M L858R): > 50%

Compound: C=CC(=O)Nc1cccc(-c2cccc3cnc(Nc4ccc(OCCN(C)C)cc4)nc23)c1 [Example C110, N-(3-(2-((4-(2-(dimethylamino)ethoxy)phenyl)amino)quinazolin-8-yl)phenyl)acrylamide]
inhibition at 0.041 µM (BTK): > 50%

Compound: C=CC(=O)Nc1cccc(-c2cccc3cnc(Nc4ccc(N5CCNC(=O)C5)cc4)nc23)c1 [Example C117, N-(3-(2-((4-(3-oxopiperazin-1-yl)phenyl)amino)quinazolin-8-yl)phenyl)acrylamide]
inhibition at 0.041 µM (BTK): > 50%

Compound: C=CC(=O)Nc1cccc(-c2cccc3cnc(Nc4ccc(OC5CN(C(C)=O)C5)cc4)nc23)c1 [Example C122, N-(3-(2-((4-((1-acetylazetidin-3-yl)oxy)phenyl)amino)quinazolin-8-yl)phenyl)acrylamide]
inhibition at 0.041 µM (BTK): > 50%
